Values of other authors, collected in article PMC3462432 (FEBS letters, 2012).

| Substance | in vitro activity against mouse leukemia cells (mouse leukemia cells) | activity against B. anthracis (B. anthracis) |
| --- | --- | --- |
| cypemycin | potent in vitro activity | – |
| plantazolicin B | – | devoid of activity |
| plantazolicin A | – | potent activity |
